Experimental data from ChEMBL document CHEMBL1667813, “Difluoroethylamines as an amide isostere in inhibitors of cathepsin K” (Bioorg Med Chem Lett, 2011).

Columns and labels:
Cathepsin K = Cathepsin K (Homo sapiens, UniProt P43235); assay: Inhibition of humanized rabbit cathepsin K
Homo sapiens [1] = organism: Homo sapiens; assay: Selectivity ratio of IC50 for human cathepsin B to IC50 for human cathepsin K
Homo sapiens [2] = organism: Homo sapiens; assay: Selectivity ratio of IC50 for human cathepsin F to IC50 for human cathepsin K
Homo sapiens [3] = organism: Homo sapiens; assay: Selectivity ratio of IC50 for human cathepsin L to IC50 for human cathepsin K
Homo sapiens [4] = organism: Homo sapiens; assay: Selectivity ratio of IC50 for human cathepsin S to IC50 for human cathepsin K
[5] = Ratio of product of IC50 for rabbit bone resorption and IC50 for humanized rabbit cathepsin K to IC50 for rabbit cathepsin K
[6] = Aqueous equilibrium solubility of the compound in water; assay type: physicochemical
[7] = Lipophilicity, log D of the compound; assay type: physicochemical; conditions: octanol/water
[8] = Dissociation constant, pKa of the compound; assay type: physicochemical
[9] = Oral bioavailability in rat at 2 mg/kg, iv; assay type: ADME, organism-based; conditions: in vivo
[10] = Half life in rat at 10 mg/kg, po or 2 mg/kg, iv; assay type: ADME, organism-based; conditions: in vivo
[11] = Oral bioavailability in dog at 1 mg/kg, iv; assay type: ADME, organism-based, Canis lupus familiaris; conditions: in vivo
[12] = Half life in dog at 5 mg/kg, po or 1 mg/kg, iv; assay type: ADME, organism-based, Canis lupus familiaris; conditions: in vivo

IC50 (Cathepsin K) | Ratio IC50 (Homo sapiens [1]) | Ratio IC50 (Homo sapiens [2]) | Ratio IC50 (Homo sapiens [3]) | Ratio IC50 (Homo sapiens [4]) | IC50 [5] | solubility thermodynamic [6] | logD [7] | pKa [8] | bioavailability [9] | half-life [10] | bioavailability [11] | half-life [12] | Compound
0.3 nM | > 32600 | 822 | 869 | 2000 | 15 nM |  |  |  |  |  |  |  | CC(C)C[C@H](N[C@@H](c1ccc(-c2ccc(S(C)(=O)=O)cc2)cc1)C(F)F)C(=O)NCC#N
0.2 nM | 26200 | 480 | 1320 | 890 | 3 nM |  |  |  |  |  |  |  | CC(C)C[C@H](N[C@@H](c1ccc(-c2ccc(S(C)(=O)=O)cc2)cc1)C(F)(F)F)C(=O)NCC#N
0.8 nM | > 11900 | 645 | 894 | 1140 | 10 nM | < 10 µg/mL | 0.11 | 2.7 | 100% | 0.8 h |  |  | CC(C)C[C@H](N[C@@H](c1ccc(-c2ccc(S(C)(=O)=O)cc2)cc1)C(F)F)C(=O)NC1(C#N)CC1
1 nM | 2300 | 1920 | 6330 | 210 | 9 nM |  |  |  | 22% | 3.8 h | 23% | 35 h | CC(C)(F)C[C@H](N[C@@H](c1ccc(-c2ccc(S(C)(=O)=O)cc2)cc1)C(F)F)C(=O)NC1(C#N)CC1

Second part, the molecule before the results:

Compound | IC50 (Cathepsin K) | Ratio IC50 (Homo sapiens [1]) | Ratio IC50 (Homo sapiens [2]) | Ratio IC50 (Homo sapiens [3]) | Ratio IC50 (Homo sapiens [4]) | IC50 [5] | solubility thermodynamic [6] | logD [7] | pKa [8] | bioavailability [9] | half-life [10] | bioavailability [11] | half-life [12]
CC(C)C[C@H](N[C@@H](c1ccc(-c2ccc(S(C)(=O)=O)cc2)cc1)C(F)(F)F)C(=O)NC1(C#N)CC1 | 0.3 nM | 23600 | 370 | 1390 | 809 | 3 nM | < 10 µg/mL | 3.53 | < 2 | 4% | 2.6 h |  | 
CC(C)(F)C[C@H](N[C@@H](c1ccc(-c2ccc(C3(C(N)=O)CC3)cc2F)cc1)C(F)F)C(=O)NC1(C#N)CC1 | 0.3 nM | 7230 | 2340 | 12700 | 2880 | 4 nM |  |  |  |  |  |  | 
CC(C)(F)C[C@H](N[C@@H](c1ccc(-c2ccc(C3(C(N)=O)CC3)cc2F)cc1)C(F)(F)F)C(=O)NC1(C#N)CC1 | 0.3 nM | 4400 | 1380 | 9370 | 1200 | 2 nM |  |  |  |  |  |  | 
CC(C)(F)C[C@H](N[C@@H](c1ccc(-c2ccc(S(C)(=O)=O)cc2)cc1)C(F)(F)F)C(=O)NC1(C#N)CC1 [ODANACATIB] | 0.2 nM | 5170 | 3980 | 15000 | 300 | 5 nM |  |  |  | 8% |  | 6% | 
CC(C)C[C@H](N[C@@H](c1ccc(-c2ccc(C(O)C(F)(F)F)cc2)cc1)C(F)F)C(=O)NC1(C#N)CC1 (stereo not given in full) | 1.9 nM | > 5180 | 126 | 785 | 813 | 32 nM |  |  |  |  |  |  | 
CC(C)C[C@H](N[C@@H](c1ccc(-c2ccc(C(O)C(F)(F)F)cc2)cc1)C(F)(F)F)C(=O)NC1(C#N)CC1 (stereo not given in full) | 1.6 nM | 5980 |  | 506 | 311 | 21 nM |  |  |  |  |  |  | 
